{"source": "patent US4687769A", "about": "“3-(3,3,3-trifluoropropenyl) cephalosporins” (Meiji Seika Kaisha, Ltd., priority 1984, dated 1987)", "experiment_in_all_cases": "Minimum inhibitory concentration (MIC)", "type_in_all_cases": "cell-based", "key": {"Proteus mirabilis GN-79": {"system": "Proteus mirabilis GN-79", "details": "GN79, read-out: Minimum inhibitory concentrations (MIC)", "excerpt": "(§1) The cephem compounds (I) of this invention and the salts or ester thereof are all novel compounds which are useful as antibacterial agent. To illustrate the utility of the new compound of this invention, we have determined and show below the minimum inhibitory concentrations of some representative examples of the new cephem compounds of this invention against growth of various bacteria in Table 1."}, "[1]": {"system": "Klebsiella pneumoniae PCI-602", "details": "PCI602, read-out: Minimum inhibitory concentrations (MIC)", "excerpt": "as §1"}, "[2]": {"system": "Salmonella typhimurium LT-2", "details": "Salmonella enterica, read-out: Minimum inhibitory concentrations (MIC)", "excerpt": "as §1"}, "[3]": {"system": "Staphylococcus aureus 209P JC-1", "details": "read-out: Minimum inhibitory concentrations (MIC)", "excerpt": "as §1"}, "[4]": {"system": "Pseudomonas cepacia M-0527", "details": "Burkholderia cepacia, M0527, read-out: Minimum inhibitory concentrations (MIC)", "excerpt": "as §1"}, "Proteus rettgeri GN-624": {"system": "Proteus rettgeri GN-624", "details": "Providencia rettgeri, GN624, read-out: Minimum inhibitory concentrations (MIC)", "excerpt": "as §1"}, "[5]": {"system": "Serratia marcescens No. 1", "details": "read-out: Minimum inhibitory concentrations (MIC)", "excerpt": "as §1"}, "Proteus vulgaris GN-76": {"system": "Proteus vulgaris GN-76", "details": "GN76, read-out: Minimum inhibitory concentrations (MIC)", "excerpt": "as §1"}, "[6]": {"system": "Escherichia coli NIHJ JC-2", "details": "NIHJJC2, read-out: Minimum inhibitory concentrations (MIC)", "excerpt": "as §1"}, "[7]": {"system": "Staphylococcus aureus Smith", "details": "read-out: Minimum inhibitory concentrations (MIC)", "excerpt": "as §1"}}}
{"compound": "CO/N=C(\\C(=O)NC1C(=O)N2C(C(=O)O)=C(/C=C/C(F)(F)F)CSC12)c1csc(N)n1", "note": "(stereo not drawn) [Compound (B), 7-[2-methoxyimino-2-(2-aminothiazol-4-yl)acetamido]-3-(3,3,3-trifluoropropenyl)-3-cephem-4-carboxylic acid (syn-isomer, trans-isomer)]", "values": [{"measurement": "MIC", "setting": "Proteus mirabilis GN-79", "value": 0.39, "unit": "µg/mL"}, {"measurement": "MIC", "setting": "[1]", "value": 0.39, "unit": "µg/mL"}, {"measurement": "MIC", "setting": "[2]", "value": 0.2, "unit": "µg/mL"}, {"measurement": "MIC", "setting": "[3]", "value": 0.39, "unit": "µg/mL"}, {"measurement": "MIC", "setting": "[4]", "value": 6.25, "unit": "µg/mL"}, {"measurement": "MIC", "setting": "Proteus rettgeri GN-624", "value": 1.56, "unit": "µg/mL"}, {"measurement": "MIC", "setting": "[5]", "value": 0.39, "unit": "µg/mL"}, {"measurement": "MIC", "setting": "Proteus vulgaris GN-76", "value": 0.2, "unit": "µg/mL"}, {"measurement": "MIC", "setting": "[6]", "value": 0.39, "unit": "µg/mL"}, {"measurement": "MIC", "setting": "[7]", "value": 0.78, "unit": "µg/mL"}]}
{"compound": "CO/N=C(\\C(=O)NC1C(=O)N2C(C(=O)O)=C(/C=C\\C(F)(F)F)CSC12)c1csc(N)n1", "note": "(stereo not drawn) [Compound (A), 7-[2-methoxyimino-2-(2-aminothiazol-4-yl)acetamido]-3-(3,3,3-trifluoropropenyl)-3-cephem-4-carboxylic acid (syn-isomer, cis-isomer)]", "values": [{"measurement": "MIC", "setting": "Proteus mirabilis GN-79", "value": 0.39, "unit": "µg/mL"}, {"measurement": "MIC", "setting": "[1]", "value": 0.39, "unit": "µg/mL"}, {"measurement": "MIC", "setting": "[2]", "value": 0.39, "unit": "µg/mL"}, {"measurement": "MIC", "setting": "[3]", "value": 0.2, "unit": "µg/mL"}, {"measurement": "MIC", "setting": "[4]", "value": 6.25, "unit": "µg/mL"}, {"measurement": "MIC", "setting": "Proteus rettgeri GN-624", "value": 3.13, "unit": "µg/mL"}, {"measurement": "MIC", "setting": "[5]", "value": 0.2, "unit": "µg/mL"}, {"measurement": "MIC", "setting": "Proteus vulgaris GN-76", "value": 0.2, "unit": "µg/mL"}, {"measurement": "MIC", "setting": "[6]", "value": 0.78, "unit": "µg/mL"}, {"measurement": "MIC", "setting": "[7]", "value": 0.39, "unit": "µg/mL"}]}
